# Reference: patent US20250346585A1 (Alexion Pharmaceuticals, Inc., priority 2022, published 2025)
# Molecular target: Human complement C1s enzyme (Homo sapiens (Human), UniProt P09871)
# Test: Human C1s enzyme assay
# Assay type: biochemical
# Settings: Human C1s enzyme assay of Example 3; read-out: IC50 (Stars)
# Summary of the method: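 Purified serum-derived human C1s (1.16 nM final) preincubated 5 min at room temperature with compound in 50 mM Tris, 1 M NaCl, pH 7.5. Z-L-Lys-SBzl thioester substrate and DTNB added (100 μM each, final); A405 read every 30 s for 30 min. IC50 from nonlinear regression of reaction rates against compound concentration.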
# Chain of Human complement C1s enzyme (P09871 438-688 limits assumed): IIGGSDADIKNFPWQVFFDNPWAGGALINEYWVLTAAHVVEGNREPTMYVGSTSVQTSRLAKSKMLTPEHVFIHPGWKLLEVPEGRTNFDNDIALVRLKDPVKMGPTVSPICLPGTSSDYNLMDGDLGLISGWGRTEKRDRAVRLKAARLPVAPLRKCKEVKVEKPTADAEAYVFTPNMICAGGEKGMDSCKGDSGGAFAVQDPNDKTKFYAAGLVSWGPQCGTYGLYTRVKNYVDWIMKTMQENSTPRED
# Chain of Human complement C1s enzyme (P09871 16-437 partner limits assumed): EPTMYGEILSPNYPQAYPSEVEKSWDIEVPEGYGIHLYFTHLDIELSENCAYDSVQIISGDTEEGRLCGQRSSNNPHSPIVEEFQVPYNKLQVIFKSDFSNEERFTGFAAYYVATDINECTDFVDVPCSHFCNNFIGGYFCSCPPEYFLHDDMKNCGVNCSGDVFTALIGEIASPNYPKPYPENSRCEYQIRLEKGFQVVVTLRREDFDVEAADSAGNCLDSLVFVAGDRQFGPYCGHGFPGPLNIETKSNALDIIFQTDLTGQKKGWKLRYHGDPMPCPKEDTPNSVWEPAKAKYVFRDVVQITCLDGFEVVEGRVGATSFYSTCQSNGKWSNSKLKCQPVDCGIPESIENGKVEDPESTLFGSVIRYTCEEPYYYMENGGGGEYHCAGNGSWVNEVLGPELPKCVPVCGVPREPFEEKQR
row,SMILES,IC50 [nM]
1,"Cc1ccc(-c2ccc(C(=O)NCC(=O)N3CC4(C[C@H]3C(=O)N[C@H](C)c3cc(C(=N)N)cs3)OCCO4)cc2)c(C)c1 [Compound 169, (S)—N—((R)-1-(4-carbamimidoylthiophen-2-yl)ethyl)-7-((2′,4′-dimethyl-[1,1′-biphenyl]-4-carbonyl)glycyl)-1,4-dioxa-7-azaspiro[4.4]nonane-8-carboxamide]",< 100
2,"C[C@@H]1C[C@@H](C(=O)N[C@H](C)c2cc(C(=N)N)cs2)N(C(=O)CNC(=O)c2ccc(Oc3ccc(F)cc3)cc2)C1 [Compound 63, (2S,4R)—N—((R)-1-(4-carbamimidoylthiophen-2-yl)ethyl)-1-((4-(4-fluorophenoxy)benzoyl)glycyl)-4-methylpyrrolidine-2-carboxamide]",< 100
3,"N=C(N)c1csc(CNC(=O)[C@@H]2C[C@@H](OC(F)F)CN2C(=O)CNC(=O)c2ccc3c(c2)-c2ccccc2C3(F)F)c1 [Compound 50, (2S,4R)—N-((4-carbamimidoylthiophen-2-yl)methyl)-1-((9,9-difluoro-9H-fluorene-3-carbonyl)glycyl)-4-(difluoromethoxy)pyrrolidine-2-carboxamide]",< 100
4,"C[C@@H](NC(=O)[C@@H]1C[C@]2(C)C[C@@H]2N1C(=O)CNC(=O)c1ccc2c(c1)-c1ccccc1C2(F)F)c1ccc(C(=N)N)s1 [Compound 29, (1S,3S,5S)—N—((R)-1-(5-carbamimidoylthiophen-2-yl)ethyl)-2-((9,9-difluoro-9H-fluorene-3-carbonyl)glycyl)-5-methyl-2-azabicyclo[3.1.0]hexane-3-carboxamide]",< 100
5,"C[C@@H](NC(=O)[C@@H]1C[C@]2(C)C[C@@H]2N1C(=O)CNC(=O)c1ccc(Oc2ccc(F)cc2)cc1)c1cc(C(=N)N)cs1 [Compound 16, (1S,3S,5S)—N-[(1R)-1-(4-carbamimidoylthiophen-2-yl)ethyl]-2-(2-{[4-(4-fluorophenoxy)phenyl]formamido}acetyl)-5-methyl-2-azabicyclo[3.1.0]hexane-3-carboxamide]",< 100
6,"Cc1ccc(-c2cccc(C(=O)NCC(=O)N3CC4(C[C@H]3C(=O)N[C@H](C)c3cc(C(=N)N)cs3)OCCO4)c2)cc1 [Compound 120, (S)—N—((R)-1-(4-carbamimidoylthiophen-2-yl)ethyl)-7-((4′-methyl-[1,1′-biphenyl]-3-carbonyl)glycyl)-1,4-dioxa-7-azaspiro[4.4]nonane-8-carboxamide]",< 100
7,"C[C@@H](NC(=O)[C@@H]1CC2(CN1C(=O)CNC(=O)c1ccc3c(c1)-c1ccc(F)cc1C3(F)F)OCCO2)c1cc(C(=N)N)cs1 [Compound 193, (8S)—N-[(1R)-1-(4-carbamimidoylthiophen-2-yl)ethyl]-7-{2-[(7,9,9-trifluorofluoren-3-yl)formamido]acetyl}-1,4-dioxa-7-azaspiro[4.4]nonane-8-carboxamide]",< 100
8,"C[C@@H](NC(=O)[C@@H]1CC2(CN1C(=O)CNC(=O)c1ccc3c(c1)-c1ccc(Cl)cc1C3(F)F)OCCO2)c1cc(C(=N)N)cs1 [Compound 192, (8S)—N-[(1R)-1-(4-carbamimidoylthiophen-2-yl)ethyl]-7-{2-[(7-chloro-9,9-difluorofluoren-3-yl)formamido]acetyl}-1,4-dioxa-7-azaspiro[4.4]nonane-8-carboxamide]",< 100
9,"Cc1ccc(Oc2ccc(C(=O)NCC(=O)N3C[C@H](OC(F)F)C[C@H]3C(=O)N[C@H](C)c3cc(C(=N)N)cs3)cc2)cc1 [Compound 6, (2S,4R)—N—((R)-1-(4-carbamimidoylthiophen-2-yl)ethyl)-4-(difluoromethoxy)-1-((4-(p-tolyloxy)benzoyl)glycyl)pyrrolidine-2-carboxamide]",< 100
10,C[C@@H](NC(=O)[C@@H]1C[C@](F)(CF)CN1C(=O)CNC(=O)c1ccc(Oc2ccc(F)cc2)cc1)c1cc(C(=N)N)cs1 [Compound 13],< 100
11,"C[C@@H](NC(=O)[C@@H]1C[C@](F)(COCCCCCCCCCC(=O)O)CN1C(=O)CNC(=O)c1ccc2c(c1)-c1ccccc1C2(F)F)c1cc(C(=N)N)cs1 [Compound 194, 10-(((3R,5S)-5-(((R)-1-(4-carbamimidoylthiophen-2-yl)ethyl)carbamoyl)-1-((9,9-difluoro-9H-fluorene-3-carbonyl)glycyl)-3-fluoropyrrolidin-3-yl)methoxy)decanoic acid]",< 100
12,"O=C(NCC(=O)N1CC2(C[C@H]1C(=O)NCc1cc(NC3=NCCCN3)cs1)OCCO2)c1ccc(Oc2ccc(F)cc2)cc1 [Compound 142, (S)-7-((4-(4-fluorophenoxy)benzoyl)glycyl)-N-((4-((1,4,5,6-tetrahydropyrimidin-2-yl)amino)thiophen-2-yl)methyl)-1,4-dioxa-7-azaspiro[4.4]nonane-8-carboxamide]",> 1000
13,"C[C@@H](NC(=O)[C@@H]1C[C@@H](OC(F)F)CN1C(=O)CNC(=O)c1ccc(Oc2ccc(C(F)(F)F)cc2)cc1)c1cc(C(=N)N)cs1 [Compound 5, (2S,4R)—N—((R)-1-(4-carbamimidoylthiophen-2-yl)ethyl)-4-(difluoromethoxy)-1-((4-(4-(trifluoromethyl)phenoxy)benzoyl)glycyl)pyrrolidine-2-carboxamide]",< 100
14,"Cc1cccc2c1-c1cc(C(=O)NCC(=O)N3CC4(C[C@H]3C(=O)N[C@H](C)c3cc(C(=N)N)cs3)OCCO4)ccc1C2(F)F [Compound 177, (S)—N—((R)-1-(4-carbamimidoylthiophen-2-yl)ethyl)-7-((9,9-difluoro-5-methyl-9H-fluorene-3-carbonyl)glycyl)-1,4-dioxa-7-azaspiro[4.4]nonane-8-carboxamide]",< 100
15,"C[C@@H](NC(=O)[C@@H]1C[C@](F)(CF)CN1C(=O)CNC(=O)c1ccc2c(c1)-c1ccccc1C2(F)F)c1ccc(C(=N)N)s1 [Compound 33, (2S,4R)—N—((R)-1-(5-carbamimidoylthiophen-2-yl)ethyl)-1-((9,9-difluoro-9H-fluorene-3-carbonyl)glycyl)-4-fluoro-4-(fluoromethyl)pyrrolidine-2-carboxamide]",< 100
16,"C[C@@H](NC(=O)[C@@H]1C[C@](F)(COCCNC(=O)CC[C@H](NC(=O)CCCCCCCCCCCCCCCCC(=O)O)C(=O)O)CN1C(=O)CNC(=O)c1ccc(Oc2ccc(F)cc2)cc1)c1cc(C(=N)N)cs1 [Compound 106, 18-(((S)-4-((2-(((3R,5S)-5-(((R)-1-(4-carbamimidoylthiophen-2-yl)ethyl)carbamoyl)-3-fluoro-1-((4-(4-fluorophenoxy)benzoyl)glycyl)pyrrolidin-3-yl)methoxy)ethyl)amino)-1-carboxy-4-oxobutyl)amino)-18-oxooctadecanoic acid]",< 100

# Same assay, conditions: Human complement C1s enzyme 1.16 nM, substrate Z-L-Lys-SBzl 100 μM, assay of Example 3; read-out: IC50 (Stars)
row,SMILES,IC50 [nM]
1,"N=C(N)c1csc(CNC(=O)[C@@H]2CC3(CN2C(=O)CNC(=O)c2ccc(-c4ccc(F)cc4F)o2)OCCO3)c1 [Compound 298, (S)—N-((4-carbamimidoylthiophen-2-yl)methyl)-7-((5-(2,4-difluorophenyl)furan-2-carbonyl)glycyl)-1,4-dioxa-7-azaspiro[4.4]nonane-8-carboxamide]",< 100
2,"N=C(N)c1csc(CNC(=O)[C@@H]2CC3(CN2C(=O)CN2Cc4ccc(-c5ccc(F)cc5F)cc4C2=O)OCCO3)c1 [Compound 229, (S)—N-((4-carbamimidoylthiophen-2-yl)methyl)-7-(2-(6-(2,4-difluorophenyl)-1-oxoisoindolin-2-yl)acetyl)-1,4-dioxa-7-azaspiro[4.4]nonane-8-carboxamide]",< 100
3,"C[C@@H](NC(=O)[C@@H]1C[C@@H](OC(F)F)CN1C(=O)CNC(=O)c1ccc2c(c1)oc1ccccc12)c1cc(C(=N)N)cs1 [Compound 361, (2S,4R)—N—((R)-1-(4-carbamimidoylthiophen-2-yl)ethyl)-1-((dibenzo[b,d]furan-3-carbonyl)glycyl)-4-(difluoromethoxy)pyrrolidine-2-carboxamide]",< 100
4,"COC[C@@]1(F)C[C@@H](C(=O)N[C@H](C)c2cc(C(=N)N)cs2)N(C(=O)CNC(=O)c2ccc3c(c2)sc2ccccc23)C1 [Compound 343, (2S,4R)—N—((R)-1-(4-carbamimidoylthiophen-2-yl)ethyl)-1-((dibenzo[b,d]thiophene-3-carbonyl)glycyl)-4-fluoro-4-(methoxymethyl)pyrrolidine-2-carboxamide]",< 100
5,"O=C(NCC(=O)N1CC2(C[C@H]1C(=O)NCc1cc(NCCO)cs1)OCCO2)c1ccc(Oc2ccc(F)cc2)cc1 [Compound 308, (S)-7-((4-(4-fluorophenoxy)benzoyl)glycyl)-N-((4-((2-hydroxyethyl)amino)thiophen-2-yl)methyl)-1,4-dioxa-7-azaspiro[4.4]nonane-8-carboxamide]",> 1000

# Same assay, conditions: Human complement C1s enzyme 1.16 nM, substrate Z-L-Lys-SBzl; assay of Example 3; read-out: IC50 (Stars)
row,SMILES,IC50 [nM]
1,"COC[C@@]1(F)C[C@@H](C(=O)N[C@H](CO)c2cc(C(=N)N)cs2)N(C(=O)CNC(=O)c2ccc3c(c2)-c2ccccc2C3(F)F)C1 [Compound 408, (2S,4R)—N—((R)-1-(4-carbamimidoylthiophen-2-yl)-2-hydroxyethyl)-1-((9,9-difluoro-9H-fluorene-3-carbonyl)glycyl)-4-fluoro-4-(methoxymethyl)pyrrolidine-2-carboxamide]",< 100
2,"N=C(N)c1csc([C@@H](CO)NC(=O)[C@@H]2C[C@](F)(CF)CN2C(=O)CNC(=O)c2ccc3c(c2)C(F)(F)c2ccccc2-3)c1 [Compound 405, (2S,4R)—N—((R)-1-(4-carbamimidoylthiophen-2-yl)-2-hydroxyethyl)-1-((9,9-difluoro-9H-fluorene-2-carbonyl)glycyl)-4-fluoro-4-(fluoromethyl)pyrrolidine-2-carboxamide]",< 100
3,"CC1(C)c2ccccc2-c2cc(C(=O)NCC(=O)N3C[C@H](OC(F)F)C[C@H]3C(=O)N[C@H](CO)c3cc(C(=N)N)cs3)ccc21 [Compound 413, (2S,4R)—N—((R)-1-(4-carbamimidoylthiophen-2-yl)-2-hydroxyethyl)-4-(difluoromethoxy)-1-((9,9-dimethyl-9H-fluorene-3-carbonyl)glycyl) pyrrolidine-2-carboxamide]",< 100
